Structures are written as SMILES. Structures can show the parent of a compound that is named as a salt. Where two headings read alike, the source gives them in different places.

The text below walks through data of US20250084062A1, “SUBSTITUTED QUINOLINE DERIVATIVE” (ASTELLAS PHARMA INC., priority 2021, published 2025).

The experiment deals with acetylcholine receptor clustering in C2Cl2 cells. The experiment in a line: Induction of acetylcholine receptor clustering in mouse myoblasts C2Cl2 cells (Test Example 1). Type of experiment: cell-based. The conditions noted are these: Mus musculus; for Emax: Myoblast, read-out: Max; for EC50: Myotube. The method, then:
Test Example 1: Evaluation of the Induction of Acetylcholine Receptor Clustering in Mouse Myoblasts C2Cl2 Cells
Induction of acetylcholine receptor clustering by the test compound was evaluated by using fluorescently-labeled Bungarotoxin to image and quantify the acetylcholine receptor cluster region induced by the differentiation of myoblasts into myotubes, and measure the change in area. The following test method was optimized with reference to various reports including FEBS let., 586, 3111-3116 (2012). When a concentration response curve is obtained by plotting the logarithmic concentration of the test compound on the horizontal axis and the ratio of the area of acetylcholine receptor cluster region on the vertical axis, the inducing action of the test compound can be determined.
A concentration response curve as an index indicating acetylcholine receptor clustering inducing action of the test compound in mouse C2Cl2 cells was prepared. C2Cl2 cells (ATCC Number: CRL-1772) were seeded at about 5000 cells/well on a 384-well plate (354667; Corning) coated with type I collagen and allowed to incubate at 37 degrees Celsius overnight in DMEM+20% FBS+1% penicillin/streptomycin medium. The following day, the medium was removed and replaced with a differentiation medium containing DMEM+2% FBS+1% penicillin/streptomycin, and allowed to incubate at 37 degrees Celsius for 4 days. The test compound was dissolved in DMSO and added to a differentiation medium containing 0.1 ng/ml Agrin (550-AG-100; R&D systems) such that the final concentration was […] (3-fold serial dilution) or 0.00017 to 3.3 μM (3-fold serial dilution). The final concentration of DMSO was 0.3%. After the 4 days of incubation, the differentiation medium was replaced with a differentiation medium containing the test compound and 0.1 ng/ml Agrin or a differentiation medium containing 0.1 ng/ml Agrin or 10 ng/ml Agrin alone, and allowed to incubate at 37 degrees Celsius overnight. The next day, 10 μl of DMEM containing Bungarotoxin-Alexa488 (B13422; Life technologies) was added to the differentiation medium containing test compound and Agrin and Agrin alone so that the final concentration of Bungarotoxin-Alexa488 was 1 μg/ml, and was allowed to incubate at 37 degrees Celsius for 1 hour to label the acetylcholine receptor. After removing all the medium, 4% PFA was added to each well and allowed to incubate at room temperature for 10 minutes, then washed with PBS, and allowed to incubate at room temperature for 30 minutes in PBS containing 5% goat serum and 0.3% Triton X-100. After removing the PBS solution, PBS-Tween20 (28352; Thermo fisher scientific) containing Anti-Myosin Heavy Chain eFluor (registered trademark) 660 (50-6503-82; eBioscience) and DAPI (340-07971; Dojindo) was added to each well and allowed to incubate at room temperature for 1 hour to label the myotubes and nuclei. After washing three times with PBS-Tween20, the fluorescence was imaged using IN Cell Analyzer 6000 (GE Healthcare). […] The response of control group (1) was regarded as 0% and the response of the control group (2) was regarded as 100%. For quantification, the signal of only the acetylcholine receptor present in the myotube was used to eliminate non-specific fluorescence.
EC50 and Max value were used as indicators of activity in order to quantitatively evaluate the inducing action of the test compound on acetylcholine receptor clustering. EC50 value is a test compound concentration which indicates 50% in terms of the area of acetylcholine receptor cluster region compared to that of 10 ng/ml Agrin (regarded as 100%) in the concentration response curve. EC50 was calculated by nonlinear regression analysis from the concentration response curve using the area of the cluster region of the test compound as an index. Max value is the maximum response value. […]

[1] abbreviates: maximum response, area of acetylcholine receptor cluster region vs 10 ng/ml Agrin (100%), 0.1 ng/ml Agrin = 0%.
Setting [2] is: C2Cl2 myotubes, with 0.1 ng/ml Agrin, concentration giving 50% of cluster area of 10 ng/ml Agrin (100%), read-out: EC50.

With `Cc1cc(-c2c(F)cc(S(=O)(=O)N3CC[C@H](F)C3)cc2F)cc2cc(C(=O)O)ccc12` [Example 67], the Emax stood at 94.3% and the response was half-maximal at 15 nM (EC50).
For `CNCCNC(=O)c1ccc2c(C)cc(-c3c(F)cc(S(=O)(=O)N4CC[C@H](F)C4)cc3F)nc2n1` [Example 61], under setting [1], the Emax was 92.4%. The EC50 under setting [2] came out at 26 nM.
The corresponding values for `Cc1cc(-c2ccc(S(=O)(=O)N3C[C@@H](F)[C@H](F)C3)cc2F)nc2cc(C(=O)O)ccc12` [Example 27] are 94.6% and 103 nM.
As for `Cc1c(F)c(-c2c(F)cc(S(=O)(=O)N3CCCC3(C)C)cc2F)nc2cc(C(=O)O)ccc12` [Example 26], the Emax under setting [1] worked out at 99.8%. In addition, the concentration for a half-maximal effect (EC50) under setting [2] is 19 nM.
The matching figures for `Cc1cc(-c2c(F)cc(S(=O)(=O)N3CCC(F)CC3)cc2F)nc2cc(C(=O)N3CC4(CNC4)C3)ccc12` [Example 14, (2,6-diazaspiro[3.3]heptan-2-yl) {2-[2,6-difluoro-4-(4-fluoropiperidine-1-sulfonyl)phenyl]-4-methylquinolin-7-yl}methanone]: 83.5% and 21 nM.
For `Cc1cc(-c2c(F)cc(S(=O)(=O)N3CC[C@H](F)C3)cc2F)nc2nc(C3=CCNCC3)ccc12` [Example 62], the Emax was determined as 86.4% and a half-maximal effect (EC50) was put at 1 nM.
`CNCCNC(=O)c1ccc2c(C)cc(-c3c(F)cc(S(=O)(=O)N4CC[C@H](F)C4)cc3F)nc2c1` [Example 10, 2-{2,6-difluoro-4-[(3S)-3-fluoropyrrolidine-1-sulfonyl]phenyl}-4-methyl-N-[2-(methylamino)ethyl]quinoline-7-carboxamide hydrochloride]: the Emax under setting [1] was 96.7%. Moreover, under setting [2], the concentration for a half-maximal effect (EC50) stood at 16 nM.
The corresponding values for `Cc1cc(-c2ccc(S(=O)(=O)N3CC[C@H](F)C3)cc2C#N)nc2cc(C(=O)O)ccc12` [Example 30] are 94.7% and 1120 nM.
For `Cc1c(F)c(-c2c(F)cc(S(=O)(=O)N3CCC(F)CC3)cc2F)nc2cc(C(=O)N3CC4(CN(C)C4)C3)ccc12` [Example 44], under setting [1], the Emax was found to be 81.8%. The EC50 under setting [2] amounted to 5 nM.
With `Cc1cc(-c2c(F)cc(S(=O)(=O)N3CC[C@H](F)C3)cc2F)nc2cc(C(=O)N[C@@H](CN)C(=O)O)ccc12` [Example 12, (2S)-3-amino-2-(2-{2,6-difluoro-4-[(3S)-3-fluoropyrrolidine-1-sulfonyl]phenyl}-4-methylquinoline-7-carboxamido) propanoic acid hydrochloride], the Emax under setting [1] was determined as 69.7%. Moreover, under setting [2], the EC50 was determined as 268 nM.
Regarding `Cc1cc(-c2ccc(S(=O)(=O)N3CC[C@H](F)C3)cc2F)nc2c(F)c(C(=O)O)ccc12` [Example 7, 8-fluoro-2-{2-fluoro-4-[(3S)-3-fluoropyrrolidine-1-sulfonyl]phenyl}-4-methylquinoline-7-carboxylic acid], the Emax under setting [1] stood at 78.4%. For the same compound, under setting [2], the EC50 is 1850 nM.
As to `Cc1c(F)c(-c2c(F)cc(S(=O)(=O)N3CC[C@H](F)C3)cc2F)nc2cc(C(=O)NC(C)(C)CC(=O)O)ccc12` [Example 54], the Emax under setting [1] was 60.8%. Under setting [2], the EC50 amounted to 1490 nM.
In the case of `CNCCN(C)C(=O)c1ccc2c(C)cc(-c3c(F)cc(S(=O)(=O)N4CC[C@H](F)C4)cc3F)nc2c1` [Example 59], the Emax under setting [1] was 95.8%. The EC50 under setting [2] is 49 nM.
As to `Cc1c(F)c(-c2c(F)cc(S(=O)(=O)N3CC[C@H](F)C3)cc2F)nc2cc(C(=O)N3CC4(CN(C)C4)C3)ccc12` [Example 45], the Emax under setting [1] is 86.1%. Moreover, the EC50 under setting [2] turned out to be 9 nM.
The corresponding values for `Cc1cc(-c2c(F)cc(S(=O)(=O)N3CC[C@H](F)C3)cc2F)nc2nc(C(=O)O)ccc12` [Example 39] are 78.2% and 2570 nM.
Turning to `Cc1c(F)c(-c2c(F)cc(S(=O)(=O)N3CCC[C@@H]3C)cc2F)nc2cc(C(=O)O)ccc12` [Example 24], the Emax under setting [1] was 92.3%. Besides, the EC50 under setting [2] came to 11 nM.
In the case of `Cc1c(F)c(-c2c(F)cc(S(=O)(=O)N3CC[C@H](F)C3)cc2F)nc2cc(C(=O)O)ccc12` [Example 20, 2-{2,6-difluoro-4-[(3S)-3-fluoropyrrolidine-1-sulfonyl]phenyl}-3-fluoro-4-methylquinoline-7-carboxylic acid], the Emax under setting [1] was determined as 86.5%. Also, under setting [2], the EC50 was 13 nM.
On to `Cc1cc(-c2ccc(S(=O)(=O)N3CC[C@H](F)C3)cc2F)nc2c(F)c(N3CCNCC3=O)ccc12` [Example 55], for which the Emax under setting [1] was found to be 38.9%. The EC50 under setting [2] is 7160 nM.
In the case of `Cc1cc(-c2ccc(S(=O)(=O)N3CCC(F)CC3)cc2F)nc2cc(C(=O)O)ccc12` [Example 5, 2-[2-fluoro-4-(4-fluoropiperidine-1-sulfonyl)phenyl]-4-methylquinoline-7-carboxylic acid], the Emax under setting [1] amounted to 86.8%. Besides, the EC50 under setting [2] came out at 95 nM.
The corresponding values for `Cc1cc(-c2ccc(S(=O)(=O)N3C[C@@H](O)[C@H](F)C3)cc2F)nc2cc(C(=O)O)ccc12` [Example 49] are 81.9% and 1090 nM.
The matching figures for `Cc1cc(-c2c(F)cc(S(=O)(=O)N3CCC(F)CC3)cc2F)nc2nc(C(=O)N3CC4(CN(C)C4)C3)ccc12` [Example 46]: 80.9% and 43 nM.
Regarding `Cc1cc(-c2c(F)cc(S(=O)(=O)N3CC[C@H](F)C3)cc2F)nc2cc(CCC(=O)O)ccc12` [Example 34], under setting [1], the Emax stood at 94.1%. For the same compound, under setting [2], the 50% effective concentration (EC50) was determined as 16 nM.
The corresponding values for `Cc1cc(-c2c(F)cc(S(=O)(=O)N3CC[C@H](F)C3)cc2F)nc2cc(C(=O)O)ccc12` [Example 1, 2-{2,6-difluoro-4-[(3S)-3-fluoropyrrolidine-1-sulfonyl]phenyl}-4-methylquinoline-7-carboxylic acid] are 91.9% and 64 nM.
As for `Cc1cc(-c2c(F)cc(S(=O)(=O)N3CC[C@H](F)C3)cc2F)nc2nc(C3CCN(C)CC3)ccc12` [Example 17, 2-{2,6-difluoro-4-[(3S)-3-fluoropyrrolidine-1-sulfonyl]phenyl}-4-methyl-7-(1-methylpiperidin-4-yl)-1,8-naphthyridine hydrochloride], the Emax under setting [1] came to 78.7%. For the same compound, under setting [2], the EC50 was determined as 65 nM.
For `Cc1cc(-c2c(F)cc(S(=O)(=O)N3CCCC3)cc2F)nc2cc(C(=O)O)ccc12` [Example 21], the Emax under setting [1] turned out to be 97.3%. For the same compound, under setting [2], the EC50 was determined as 147 nM.
The corresponding values for `Cc1c(F)c(-c2c(F)cc(S(=O)(=O)N3CC[C@H](F)C3)cc2F)nc2cc(C3CCNCC3)ccc12` [Example 57] are 87% and 89 nM.
Regarding `CNCCNC(=O)c1ccc2c(C)cc(-c3c(F)cc(S(=O)(=O)N4CCC(F)CC4)cc3F)nc2n1` [Example 60], the Emax under setting [1] was found to be 99.2%. In addition, the EC50 under setting [2] was found to be 11 nM.
The corresponding values for `COc1cc(S(=O)(=O)N2CC[C@H](F)C2)cc(F)c1-c1cc(C)c2ccc(C(=O)O)nc2c1` [Example 8, 7-{2-fluoro-4-[(3S)-3-fluoropyrrolidine-1-sulfonyl]-6-methoxyphenyl}-5-methylquinoline-2-carboxylic acid] are 88.2% and 45 nM.
The corresponding values for `Cc1cc(-c2ccc(S(=O)(=O)N3CC[C@H](F)C3)cc2F)nc2cc(OC[C@@H](O)CO)ccc12` [Example 64] are 107% and 24 nM.
The matching figures for `Cc1cc(-c2c(F)cc(S(=O)(=O)N3CC[C@H](F)C3)cc2F)nc2nc(C3=CCC(C(=O)O)CC3)ccc12` (stereo partly drawn) [Example 36]: 80.2% and 392 nM.

In general, EC50 refers to the concentration needed to bring the measured effect to its halfway point.
